Data published in BindingDB's records for doi:10.1016/s0960-894x(01)00573-x (Pfizer, 2001).

Target: T1, Caspase-1 (Homo sapiens, UniProt P29466)
T1 sequence (P29466 whole entry): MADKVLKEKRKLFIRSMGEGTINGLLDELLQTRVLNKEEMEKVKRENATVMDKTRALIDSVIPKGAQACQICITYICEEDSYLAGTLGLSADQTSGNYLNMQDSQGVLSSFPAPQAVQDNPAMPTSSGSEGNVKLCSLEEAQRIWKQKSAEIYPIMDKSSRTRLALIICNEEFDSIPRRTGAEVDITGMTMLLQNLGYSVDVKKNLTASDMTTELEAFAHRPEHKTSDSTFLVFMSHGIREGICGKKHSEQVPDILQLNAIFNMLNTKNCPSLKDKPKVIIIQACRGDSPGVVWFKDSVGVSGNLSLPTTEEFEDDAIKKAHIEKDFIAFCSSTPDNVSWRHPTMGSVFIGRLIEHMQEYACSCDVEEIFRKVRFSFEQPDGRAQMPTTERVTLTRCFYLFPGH
Experiment: Caspase Inhibition Assay
Conditions: pH 7; 37 °C
Protocol: The substrate peptides terminating in AMC are processed by caspases with or without inhibitors, and the accumulation of AMC was assessed with a Cytofluor fluorescent plate reader at excitation and emission wavelengths of 380 and 460 nm. Compounds were tested, and full IC50 curves were run for all compounds expressing measurable inhibitory activity.

SMILES | Ki [nM]
O=C[C@H](CC(=O)O)NS(=O)(=O)c1ccccc1Oc1ccc(-c2ccccc2)cc1 [(3S)-4-oxo-3-{[2-(4-phenylphenoxy)benzene]sulfonamido}butanoic acid] | 290
CCC(C)c1ccc(Oc2ccccc2S(=O)(=O)N[C@H](C=O)CC(=O)O)cc1 (stereo partly drawn) [(3S)-3-({2-[4-(butan-2-yl)phenoxy]benzene}sulfonamido)-4-oxobutanoic acid] | 490
CCC(CC)c1ccc(Oc2ccccc2S(=O)(=O)N[C@H](C=O)CC(=O)O)cc1 [(3S)-4-oxo-3-({2-[4-(pentan-3-yl)phenoxy]benzene}sulfonamido)butanoic acid] | 440
O=C[C@H](CC(=O)O)NS(=O)(=O)c1ccccc1Oc1ccc(-c2ccc(C(=O)O)cc2)cc1 [4-[4-(2-{[(2S)-1-carboxy-3-oxopropan-2-yl]sulfamoyl}phenoxy)phenyl]benzoic acid] | 4200
O=C[C@H](CC(=O)O)NS(=O)(=O)c1ccccc1Oc1ccc(C2CCCCC2)cc1 [(3S)-3-{[2-(4-cyclohexylphenoxy)benzene]sulfonamido}-4-oxobutanoic acid] | 900
O=C[C@H](CC(=O)O)NS(=O)(=O)c1ccccc1Oc1ccc(C2CCCC2)cc1 [(3S)-3-{[2-(4-cyclopentylphenoxy)benzene]sulfonamido}-4-oxobutanoic acid] | 880

Other lines, results leading:

Ki [nM] | SMILES
1100 | Cc1ccc(Oc2ccccc2S(=O)(=O)N[C@H](C=O)CC(=O)O)cc1 [(3S)-3-{[2-(4-methylphenoxy)benzene]sulfonamido}-4-oxobutanoic acid]
2400 | O=C[C@H](CC(=O)O)NS(=O)(=O)c1ccccc1Oc1ccccc1 [(3S)-4-oxo-3-[(2-phenoxybenzene)sulfonamido]butanoic acid]
450 | Cc1cc(Oc2ccccc2S(=O)(=O)N[C@H](C=O)CC(=O)O)cc(C)c1C [(3S)-4-oxo-3-{[2-(3,4,5-trimethylphenoxy)benzene]sulfonamido}butanoic acid]
3000 | Cc1ccccc1Oc1ccccc1S(=O)(=O)N[C@H](C=O)CC(=O)O [(3S)-3-{[2-(2-methylphenoxy)benzene]sulfonamido}-4-oxobutanoic acid]
1000 | Cc1cccc(Oc2ccccc2S(=O)(=O)N[C@H](C=O)CC(=O)O)c1C [(3S)-3-{[2-(2,3-dimethylphenoxy)benzene]sulfonamido}-4-oxobutanoic acid]
110 | Cc1cc(Oc2ccccc2S(=O)(=O)N[C@H](C=O)CC(=O)O)ccc1C(C)C [(3S)-3-({2-[3-methyl-4-(propan-2-yl)phenoxy]benzene}sulfonamido)-4-oxobutanoic acid]
430 | Cc1cccc(Oc2ccccc2S(=O)(=O)N[C@H](C=O)CC(=O)O)c1 [(3S)-3-{[2-(3-methylphenoxy)benzene]sulfonamido}-4-oxobutanoic acid]
620 | CC(C)c1ccc(Oc2ccccc2S(=O)(=O)N[C@H](C=O)CC(=O)O)cc1 [(3S)-4-oxo-3-({2-[4-(propan-2-yl)phenoxy]benzene}sulfonamido)butanoic acid]
100 | CCC(C)c1ccc(Oc2ccccc2S(=O)(=O)N[C@H](C=O)CC(=O)O)cc1C (stereo partly drawn) [(3S)-3-({2-[4-(butan-2-yl)-3-methylphenoxy]benzene}sulfonamido)-4-oxobutanoic acid]
